Patent publication US20220257552A1, “METHODS OF PRESCREENING AND TREATING BREAST CANCERS WITH SELECTIVE ANDROGEN RECEPTOR MODULATORS” (priority 2021, published 2022)
Values joined by “and” are separate entries in the source; they are usually repeats but may differ in a detail not shown here. Identical values can stand only once.

How the values were obtained:
[1] = system: ER-positive metastatic breast cancer; test: Phase 2 trial G200801, 9 mg daily, ER-positive metastatic breast cancer; type: in vivo, human
Source text: The goal of this study was to determine the importance of the AR status as a therapeutic target in women with ER-positive metastatic breast cancer (MBC) that had previously responded to hormone therapy. The treatment was continued until disease progression (PD).
CBR will be correlated with AR status of metastatic tumor biopsy.
Female subjects with ER-positive metastatic breast cancer who have previously been treated with up to 3 prior hormonal therapies for the treatment of breast cancer. Subjects must have been treated with and responded to previous adjuvant therapy for ≥3 years or hormonal therapy for metastatic disease for ≥6 months prior to progression. Details of subject selection criteria are presented below:
The primary efficacy analysis was the clinical benefit in subjects with AR-positive breast cancer at 6 months as measured by a modified Response Evaluation Criteria in Solid Tumors (RECIST 1.1) classification. Key secondary endpoints of clinical benefit in all subjects and AR-negative subjects, as well as objective response rate, progression free survival, time to progression, duration of response, incidence of SREs, and time to first SRE in subsets based on AR status (i.e., all subjects, AR-positive subjects, and AR-negative subjects) was also assessed. Effects on CA 27-29, PSA, bone turnover markers, QOL, and libido were assessed as tertiary endpoints.
Clinical benefit in a subject is defined as a complete response [CR], a partial response [PR] or stable disease [SD] as measured by modified RECIST 1.1, which is described in detail below. (Eisenhauer E A et al. New response evaluation criteria in solid tumors: revised RECIST guideline (version 1.1). European Journal of Cancer 45:228-247, 2009).
For subjects with non-measurable (non-target) disease only at baseline, SD was defined as those with non-CR/non-PD combined response. The primary endpoint of the study was to assess the proportion of subjects with clinical benefit (PCB) at 6 months (CR+PR+SD) in subjects with AR-positive breast cancer.

GR = target: T1, GR (Rattus norvegicus, UniProt P06536); test: GR transactivation in HEK-293 cells; type: cell-based
T1 construct: expressed in transfected cells
T1 sequence (P06536 whole entry): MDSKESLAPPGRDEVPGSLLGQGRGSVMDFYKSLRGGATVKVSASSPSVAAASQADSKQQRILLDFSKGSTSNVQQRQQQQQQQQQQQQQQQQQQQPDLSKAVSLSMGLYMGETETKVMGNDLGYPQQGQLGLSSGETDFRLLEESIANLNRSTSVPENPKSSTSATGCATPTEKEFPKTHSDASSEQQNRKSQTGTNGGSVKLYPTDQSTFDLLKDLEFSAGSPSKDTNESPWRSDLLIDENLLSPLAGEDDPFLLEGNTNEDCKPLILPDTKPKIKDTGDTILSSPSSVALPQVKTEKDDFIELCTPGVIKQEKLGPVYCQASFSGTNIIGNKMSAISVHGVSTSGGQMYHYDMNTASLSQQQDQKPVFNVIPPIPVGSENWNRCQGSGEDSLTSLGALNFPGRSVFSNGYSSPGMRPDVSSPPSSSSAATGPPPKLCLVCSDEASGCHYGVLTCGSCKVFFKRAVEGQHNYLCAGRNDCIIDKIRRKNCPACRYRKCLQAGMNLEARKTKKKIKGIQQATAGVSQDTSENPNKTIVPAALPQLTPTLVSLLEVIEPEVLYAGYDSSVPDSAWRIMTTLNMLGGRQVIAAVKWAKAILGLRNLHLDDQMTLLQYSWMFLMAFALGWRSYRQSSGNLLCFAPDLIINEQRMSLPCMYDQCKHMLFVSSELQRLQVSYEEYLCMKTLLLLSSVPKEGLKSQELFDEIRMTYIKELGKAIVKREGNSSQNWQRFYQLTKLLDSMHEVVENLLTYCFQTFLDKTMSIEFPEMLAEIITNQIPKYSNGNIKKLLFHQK
Protocol: Rat GR, MR, PR, ER-α and ER-β were individually cloned into a pCR3.1 vector backbone. Sequencing was performed to verify the absence of any mutations. HEK-293 cells were plated at 90,000 cells per well of a 24 well plate in Dulbecco's Minimal Essential Media supplemented with 5% charcoal-stripped FBS. […] Luciferase assays were performed 48 h after transfection. Transcriptional activation values are represented as firefly luciferase normalized to renilla luciferase.

C[C@](O)(COc1ccc(C#N)cc1)C(=O)Nc1ccc(C#N)c(C(F)(F)F)c1 [Formula IX, (S)—N-(4-Cyano-3-(trifluoromethyl)phenyl)-3-(4-cyanophenoxy)-2-hydroxy-2-methylpropanamide]
AR-positive patients with clinical benefit at 6 months (primary endpoint) ([1]; 9 mg daily): 6/17 | CR or PR ([1]; 9 mg daily): no CR or PR has been observed | median duration of SD as best response ([1]; 9 mg daily): 212 days | patients with PSA increase ([1]; 9 mg daily): 20 of the 22 | tolerability ([1]; 9 mg daily): well-tolerated | subjects with clinical benefit (SD) at 6 months ([1]; 9 mg once daily, all subjects): Seven out of twenty-two | tolerability ([1]; 9 mg, no virilization, hematocrit increase or liver toxicity): well tolerated | A-fib ([1]; AE count, 9 mg daily): 1 | anxiety/emotional changes ([1]; AE count, 9 mg daily): 5 | arthralgia ([1]; AE count, 9 mg daily): 6 | bloating ([1]; AE count, 9 mg daily): 2 | bruising ([1]; AE count, 9 mg daily): 1 | cellulitis ([1]; AE count, 9 mg daily): 1 | chills ([1]; AE count, 9 mg daily): 1 | constipation ([1]; AE count, 9 mg daily): 2 | cough ([1]; AE count, 9 mg daily): 1 | dehydration ([1]; AE count, 9 mg daily): 1 | diarrhea ([1]; AE count, 9 mg daily): 3 | dizziness ([1]; AE count, 9 mg daily): 2 | dysgeusia ([1]; AE count, 9 mg daily): 1 | dyspepsia ([1]; AE count, 9 mg daily): 1 | dyspnea ([1]; AE count, 9 mg daily): 3 | edema ([1]; AE count, 9 mg daily): 2 | fatigue ([1]; AE count, 9 mg daily): 14 | fever ([1]; AE count, 9 mg daily): 1 | flatulence ([1]; AE count, 9 mg daily): 1 | glaucoma ([1]; AE count, 9 mg daily): 1 | headache ([1]; AE count, 9 mg daily): 4 | hot flash night sweats ([1]; AE count, 9 mg daily): 7 | hypertension ([1]; AE count, 9 mg daily): 2 | infection ([1]; AE count, 9 mg daily): 1 | insomnia ([1]; AE count, 9 mg daily): 2 | myalgia ([1]; AE count, 9 mg daily): 5 | nail discoloration ([1]; AE count, 9 mg daily): 1 | nausea ([1]; AE count, 9 mg daily): 11 | pain ([1]; AE count, 9 mg daily): 22 | paresthesia ([1]; AE count, 9 mg daily): 1 | pleural effusion ([1]; AE count, 9 mg daily): 1 | polyuria ([1]; AE count, 9 mg daily): 1 | post menopausal bleeding ([1]; AE count, 9 mg daily): 3 | stiffness ([1]; AE count, 9 mg daily): 1 | tendonitis ([1]; AE count, 9 mg daily): 1 | vision changes ([1]; AE count, 9 mg daily): 3 | vomiting ([1]; AE count, 9 mg daily): 2 | weight gain ([1]; AE count, 9 mg daily): 2 | weight loss ([1]; AE count, 9 mg daily): 2 | subjects with CB as best response ([1]; all subjects (9/22)): 41% | Current Disposition ([1]; individual patients): D/C (2×) and Deceased (4×) | Days on Study ([1]; individual patients): 255 Days and 105 Days and 7 Days and 18 Days and 158 Days and 308 Days and 52 Days and 63 Days and 230 Days and 84 Days (3×) and 252 Days and 28 Days and 239 Days and 86 Days and 202 Days and 190 Days and 99 Days and 137 Days and 100 Days and 91 Days | Day 84 RECIST ([1]; individual patients, 9 mg daily): D/C SAE and PD SAE and D/C | tumor regression ([1]; one subject with SD): 27%

C[C@](O)(COc1ccc(C#N)cc1)C(=O)Nc1ccc(C#N)c(Cl)c1 [Formula VIII, (S)—N-(3-chloro-4-cyanophenyl)-3-(4-cyanophenoxy)-2-hydroxy-2-methylpropanamide]
GR-mediated transactivation, agonist mode (GR; all tested concentrations): did not induce | dexamethasone-induced GR-mediated transactivation, antagonist mode (GR; co-incubation): failed to alter
